Results as given in patent US20260008760A1, “DIPEPTIDYL PEPTIDASE 1 INHIBITORS AND USES THEREOF” (Insmed Incorporated, priority 2024, published 2026).

Tests used:
DPP1 in HL-60 cells = DPP1 in HL-60 cells (Homo sapiens, UniProt P53634); assay: DPP1 Cell IC50 assay; type: cell-based; set-up: host or cells: HL-60 cells; settings: 60 min pre-incubation, H-Gly-Phe-AFC substrate, average of n runs, read-out: Avg. IC50 (DPP1 Cell IC50 value ranges)
In short: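 Intracellular DPP1 activity read as AFC fluorescence (Ex/Em 400/505 nm) after 30 min with H-Gly-Phe-AFC (500 μM stock), following 60 min compound pre-incubation at 37° C with HL-60 cells at 5×10^5 live cells per mL in PBS. IC50 by 4-parameter fit against DMSO-only controls.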

human DPP1 enzyme = human DPP1 enzyme (Homo sapiens, UniProt P53634); assay: Human DPP1 Enzyme IC50 Assay; type: biochemical; set-up: was first proteolytically processed into its mature form using recombinant human cathepsin L; purchased R&D Systems; settings: activated recombinant human DPP1, 400 μM H-Gly-Arg-AMC, 10 minutes pre-incubation at 37° C., pH 6.0; average of n runs; read-out: Avg. IC50 (Human DPP1 enzyme IC50 value ranges)
Chain of human DPP1 enzyme (P53634 25-134 limits assumed): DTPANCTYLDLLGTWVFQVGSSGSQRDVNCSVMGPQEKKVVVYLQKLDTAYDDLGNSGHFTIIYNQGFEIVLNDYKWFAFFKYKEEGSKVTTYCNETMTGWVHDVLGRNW
Chain of human DPP1 enzyme (P53634 231-394 limits assumed): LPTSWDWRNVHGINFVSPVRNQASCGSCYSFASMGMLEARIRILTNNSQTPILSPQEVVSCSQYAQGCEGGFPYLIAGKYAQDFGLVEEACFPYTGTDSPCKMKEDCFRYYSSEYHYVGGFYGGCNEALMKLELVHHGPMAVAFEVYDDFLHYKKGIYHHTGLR
Chain of human DPP1 enzyme (P53634 395-463 limits assumed): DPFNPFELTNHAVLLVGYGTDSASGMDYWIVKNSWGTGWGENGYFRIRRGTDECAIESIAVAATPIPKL
In short: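 IC50 came from a four-parameter fit of activity relative to no-compound control, with fluorescence (Ex 350/Em 450 nm) read every 5 min for 90 min at 37 °C using 400 μM final H-Gly-Arg-AMC. Cathepsin L-matured human recombinant DPP1 was preincubated 10 min with compound at pH 6.0 (MES, DTT, 1% DMSO).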

Chain of DPP1 in HL-60 cells (P53634 25-463): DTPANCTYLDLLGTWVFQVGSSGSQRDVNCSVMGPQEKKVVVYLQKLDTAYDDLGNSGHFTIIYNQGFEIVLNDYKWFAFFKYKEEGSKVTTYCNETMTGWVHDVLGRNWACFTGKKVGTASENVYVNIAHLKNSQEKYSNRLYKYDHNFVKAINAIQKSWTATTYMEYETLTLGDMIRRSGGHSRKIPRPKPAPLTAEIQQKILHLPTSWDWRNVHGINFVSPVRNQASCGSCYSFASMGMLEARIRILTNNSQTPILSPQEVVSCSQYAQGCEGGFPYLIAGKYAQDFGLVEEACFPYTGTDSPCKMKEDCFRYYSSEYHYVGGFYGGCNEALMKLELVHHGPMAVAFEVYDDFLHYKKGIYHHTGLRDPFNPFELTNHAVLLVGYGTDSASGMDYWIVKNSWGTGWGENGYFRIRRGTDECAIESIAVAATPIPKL

IC50 (DPP1 in HL-60 cells) [nM]	IC50 (human DPP1 enzyme) [nM]	Compound
> 2.5	> 15	Cn1ccc2ncc(-c3ccc(C[C@@H](C#N)NC(=O)[C@@H]4CNCCCO4)cc3)cc21 [Compound A143]
> 2.5	> 15	Cc1ncc(C)n2cc(-c3ccc(C[C@@H](C#N)NC(=O)[C@@H]4CNCCCO4)cc3)cc12 [Compound A63]
> 2.5	> 15	Cc1cc2cc(-c3ccc(C[C@@H](C#N)NC(=O)[C@@H]4CNCCCO4)cc3)cn2c(C)n1 [Compound A57]
> 2.5	> 15	CCc1sc(-c2ccc(C[C@@H](C#N)NC(=O)[C@@H]3CNCCCO3)cc2)nc1-c1cnn(C)c1 [Compound D8, (2S)—N-[(1S)-1-cyano-2-{4-[5-ethyl-4-(1-methylpyrazol-4-yl)-1,3-thiazol-2-yl]phenyl}ethyl]-1,4-oxazepane-2-carboxamide]
> 2.5	> 15	CN1C(=O)C2(CCN(C3CCOCC3)CC2)c2cc(-c3ccc(C[C@@H](C#N)NC(=O)[C@@H]4CNCCCO4)cc3)ccc21 [Compound 35]
> 2.5	> 15	Cn1c(=O)oc2cc3c(cc21)-c1cc(F)c(C[C@H](C#N)NC(=O)[C@@H]2CNCCCO2)cc1OC3 [Compound C1-A]
1 to 2.5	< 5	CO[C@@H]1CCNC[C@@H](C(=O)N[C@H](C#N)Cc2ccc(-c3ccc4c(c3)CCC(=O)N4C)cc2)OC1 [Compound A145]
1 to 2.5	< 5	Cn1ncc2cc3c(cc21)-c1cc(F)c(C[C@@H](C#N)NC(=O)[C@@H]2CNCCCO2)cc1OC3 [Compound C33]
> 2.5	> 15	N#C[C@H](Cc1ccc(-c2ccc3c(c2)C2(CCN(C4CC4)CC2)SCC3)cc1)NC(=O)[C@@H]1CNCCCO1 [Compound I7]
> 2.5	> 15	N#C[C@H](Cc1ccc(-c2ccc3c(c2)[C@]2(CCCN(c4nccs4)C2)COC3)cc1)NC(=O)[C@@H]1CNCCCO1 [Compound I20]
> 2.5	> 15	C[C@@H]1NC[C@@H](C(=O)N[C@H](C#N)Cc2ccc(-c3ccc4c(c3)CCC(=O)N4C)cc2)OC[C@@H]1O [Compound A148]
> 2.5	> 15	N#C[C@H](Cc1ccc(-c2csc(-c3nnc(N)o3)c2)cc1)NC(=O)[C@@H]1CNCCCO1 [Compound D2, (2S)—N-[(1S)-2-{4-[5-(5-amino-1,3,4-oxadiazol-2-yl)thiophen-3-yl]phenyl}-1-cyanoethyl]-1,4-oxazepane-2-carboxamide]
> 2.5	< 5	CO[C@@H]1CCNC[C@@H](C(=O)N[C@H](C#N)Cc2ccc(-c3ccc4c(n3)CCCN4)cc2)OC1 [Compound A33, (2S,7R)—N—((S)-1-cyano-2-(4-(5,6,7,8-tetrahydro-1,5-naphthyridin-2-yl)phenyl)ethyl)-7-methoxy-1,4-oxazocane-2-carboxamide]
1 to 2.5	< 5	CO[C@@H]1CNC[C@@H](C(=O)N[C@H](C#N)Cc2ccc(-c3ccc4nnn(C)c4c3)cc2)OC1 [Compound H12-B]
< 1	< 5	CO[C@H]1CNC[C@@H](C(=O)N[C@H](C#N)Cc2ccc(-c3cc4c(C)nc(C)cn4c3)cc2F)OC1 [Compound A88-B]
> 2.5	> 15	N#C[C@H](Cc1ccc(-c2ccc3c(c2)[C@]2(CCN(C#N)C2)SC3)cc1)NC(=O)[C@@H]1CNCCCO1 [Compound I18]
1 to 2.5	< 5	CO[C@@H]1CCNC[C@@H](C(=O)NC(C#N)Cc2cc3c(cc2F)-c2ccc(C#N)cc2CO3)OC1 (mixture of isomers) [Compound B11, (2S,7R)—N-(1-cyano-2-{8-cyano-2-fluoro-6H-benzo[c]chromen-3-yl}ethyl)-7-methoxy-1,4-oxazocane-2-carboxamide]
< 1	< 5	CO[C@H]1CCO[C@H](C(=O)N[C@H](C#N)Cc2cc3c(cc2F)-c2ccc(C#N)cc2CO3)CNC1 (single isomer, unassigned) [Compound B13]

IC50 (DPP1 in HL-60 cells) [nM]	IC50 (human DPP1 enzyme) [nM]	Compound
> 2.5	> 15	Cn1nc(F)c2ccc(-c3ccc(C[C@@H](C#N)NC(=O)[C@@H]4CNCC[C@@H](F)CO4)cc3)cc21 [Compound A161]
1 to 2.5	5 to 15	CN1C(=O)CCc2cc(-c3ccc(C[C@@H](C#N)NC(=O)[C@@H]4CNCC[C@@H](F)CO4)c(F)c3)ccc21 [Compound A155]
> 2.5	5 to 15	N#C[C@H](Cc1ccc(-c2ccc3c(c2)[C@@]2(CCCN(C4CC4)C2)COC3)cc1)NC(=O)[C@@H]1CNCCCO1 [Compound I12]
> 2.5	> 15	CO[C@H]1CCO[C@H](C(=O)N[C@H](C#N)Cc2ccc(-c3ccc4c(n3)CCCN4)cc2)CNC1 [Compound A43, (2S,6S)—N—((S)-1-cyano-2-(4-(5,6,7,8-tetrahydro-1,5-naphthyridin-2-yl)phenyl)ethyl)-6-methoxy-1,4-oxazocane-2-carboxamide]
1 to 2.5	> 15	CO[C@H]1CCO[C@H](C(=O)N[C@H](C#N)Cc2ccc(-c3cc4c(C)nc(C)cn4c3)cc2)CNC1 [Compound A42, (2S,6S)—N-[(1S)-1-cyano-2-(4-{1,3-dimethylpyrrolo[1,2-a]pyrazin-7-yl}phenyl)ethyl]-6-methoxy-1,4-oxazocane-2-carboxamide]
> 2.5	> 15	N#C[C@H](Cc1ccc(-c2cc3ccncc3[nH]2)cc1)NC(=O)[C@@H]1CNCCCO1 [Compound A7, (2S)—N-[(1S)-1-cyano-2-(4-{1H-pyrrolo[2,3-c]pyridin-2-yl}phenyl)ethyl]-1,4-oxazepane-2-carboxamide]
> 2.5	> 15	CO[C@@H]1CNC[C@@H](C(=O)N[C@H](C#N)Cc2ccc(-c3cc4c(C)nc(C)cn4c3)cc2F)OC1 [Compound A88-A]
> 2.5	> 15	N#C[C@H](Cc1ccc(-c2ccc3c(c2)CCS3)cc1)NC(=O)[C@@H]1CNCCCO1 [Compound A4, (2S)—N-[(1S)-1-cyano-2-[4-(2,3-dihydro-1-benzothiophen-5-yl)phenyl]ethyl]-1,4-oxazepane-2-carboxamide]
1 to 2.5	< 5	CO[C@@H]1CCNC[C@@H](C(=O)N[C@H](C#N)Cc2ccc(-c3ccc4c(n3)CCCN4)cc2F)OC1 [Compound A50, (2S,7R)—N-[(1S)-1-cyano-2-[2-fluoro-4-(5,6,7,8-tetrahydro-1,5-naphthyridin-2-yl)phenyl]ethyl]-7-methoxy-1,4-oxazocane-2-carboxamide]
> 2.5	> 15	CN1CCC2(CC1)C(=O)Nc1ccc(-c3ccc(C[C@@H](C#N)NC(=O)[C@@H]4CNCCCO4)cc3)cc12 [Compound 13, (2S)—N-[(1S)-1-cyano-2-(4-{1′-methyl-2-oxo-1H-spiro[indole-3,4′-piperidin]-5-yl}phenyl)ethyl]-1,4-oxazepane-2-carboxamide]
1 to 2.5	< 5	Cn1c(=O)oc2cc3c(cc21)-c1cc(F)c(CC(C#N)NC(=O)[C@@H]2CNCCCCO2)cc1OC3 (stereo partly drawn) [Compound C5, (2S)—N-[(1S)-1-cyano-2-{4-fluoro-15-methyl-14-oxo-8,13-dioxa-15-azatetracyclo[8.7.0.0^{2,7}0.0^{12,16}]heptadeca-1(10),2,4,6,11,16-hexaen-5-yl}ethyl]-1,4-oxazocane-2-carboxamide]
1 to 2.5	5 to 15	N#CC(Cc1cc2c(cc1F)-c1cc(C3COC3)c(F)cc1CO2)NC(=O)[C@@H]1CNCCCCO1 (mixture of isomers) [Compound B10, (2S)—N-{1-cyano-2-[2,8-difluoro-9-(oxetan-3-yl)-6H-benzo[c]chromen-3-yl]ethyl}-1,4-oxazocane-2-carboxamide]
1 to 2.5	> 15	Cc1cn2c3c(cc2c(C)n1)-c1cc(F)c(C[C@@H](C#N)NC(=O)[C@@H]2CNCCCO2)cc1OC3 [Compound C10]
> 2.5	> 15	N#C[C@@H](Cc1cc2c(cc1F)-c1cc(C3COC3)c(F)cc1CO2)NC(=O)[C@@H]1CNCCCCO1 [Compound B10-A]
> 2.5	> 15	Cn1c(=O)oc2ccc3c(c21)COc1cc(CC(C#N)NC(=O)[C@@H]2CNCCCO2)c(F)cc1-3 (mixture of isomers) [Compound C2, (2S)—N-(1-cyano-2-(8-fluoro-3-methyl-2-oxo-3,4-dihydro-2H-benzo[3,4]isochromeno[8,7-d]oxazol-7-yl)ethyl)-1,4-oxazepane-2-carboxamide]
1 to 2.5	5 to 15	CO[C@@H]1CCNC[C@@H](C(=O)N[C@H](C#N)Cc2ccc(-c3cc4c(C)nc(C)cn4c3)c(F)c2)OC1 [Compound A35, (2S,7R)—N-[(1S)-1-cyano-2-(4-{1,3-dimethylpyrrolo[1,2-a]pyrazin-7-yl}-3-fluorophenyl)ethyl]-7-methoxy-1,4-oxazocane-2-carboxamide]
> 2.5	> 15	Cc1c(C(N)=O)sc2ncc(-c3ccc(C[C@@H](C#N)NC(=O)[C@@H]4CNCCCO4)cc3)cc12 [Compound A19, (2S)—N-[(1S)-2-(4-{2-carbamoyl-3-methylthieno[2,3-b]pyridin-5-yl}phenyl)-1-cyanoethyl]-1,4-oxazepane-2-carboxamide]
< 1	< 5	COC1CNC[C@@H](C(=O)N[C@H](C#N)Cc2cnc(-c3ccc4c(F)nn(C)c4c3)s2)OC1 (stereo partly drawn) [Compound A169]
